The record followed here is patent US20040122209A1, “Products for regulating the degradation of collagen and methods for identifying same” (Shriners Hospital For Children, priority 2002, published 2004).

Format in all cases: cell-based
Test [1] has as its system bovine articular cartilage explant. As to the kind of experiment: Collagenase-cleaved type II collagen (COL2-3/4C) in bovine articular cartilage explant culture. Particulars: 1 and 10 μM, time- and dose-dependent. On the procedure:
(§1) The cartilages were prepared as previously described (Dahlberg, L. et al. (2000) supra. In brief, the cartilage samples were washed three times with basal culture medium containing Dulbecco's modified Eagle's medium (DMEM; Gibco BRL, Life Technologies, Grand Island, N.Y.) with 20 mM HEAPS buffer (pH 7.4) (Gibco BRL), 45 mM NaHCO3, 100 units/ml penicillin, 100 μg/ml streptomycin and 150 μg/ml gentamycin sulphate (Medium A). Full-depth cartilage slices from a single area, around 20 mm×20 mm were cut vertical to the articular surface and then into cubes of approximately 2 mm×2 mm (5-7 cubes were randomly obtained and wet weights about 50-70 mg/well determined).
(§2) The cartilage was assigned to 48 well plate (ca 40 mg/well) and kept in Medium A supplemented with 50 μg/ml ascorbic acid, 0.1 mg/bovine serum albumin, 50 μg/ml insulin, 5.0 μg/ml and 5.0 μg/ml sodium DMEM alone at 37° C. in 95% air/5% CO2. The cartilage was precultured for 2 days and medium was changed at day 0. Thereafter medium (as described in pellet cultures) was replaced every four days. Various CNBr fragments and/or synthetic peptides were freshly added from day 0 at each medium change. Thereafter, cartilage explants and conditioned media were harvested and stored at −20° C.
(§3) The cell pellets and cartilage explant cultured for various times were digested for the extraction of collagenase-generated neoepitope COL2-3/4Cshort (Billinghurst, R. C. et al., (1997) supra) and denatured type II collagen epitope COL2-3/4m and total type II collagen (Hollander, A. P. et al. (1994a) supra), as previously described: Briefly, the harvested pellets were incubated overnight with 1.0 mg/ml α-chymotrypsin at 37° C. to cleave and solubilize denatured collagen leaving the above neoepitope and epitope intact. After inhibition of α-chymotrypsin activity with N-tosyl-L-phenelalanine-chloromethyl ketone (Sigma), the samples were centrifuged and the supernatants were removed and boiled for 10 min. The COL2-3/4Cshort epitope (hereafter referred to as COL2-3/4Cshort) generated by cleavage of type II collagen by collagenase (Billinghurst, R. C. et al. (1997) supra) and intrachain epitope (COL2-3/4m) exposed in denatured type II collagen (Hollander, A. P. et al. (1994a) supra) were measured in α-chymotrypsin extracts by immunoassay. The COL2-3/4Cshort epitope is detected in an ELISA assay using a rabbit antibody to the carboxyterminal cleavage neoepitope on the TCA piece generated by primary collagenase cleavage of type II collagen. The release of the COL2-3/4C epitope into media was also measured by immunoassay. Total contents in tissue/cells and media was recorded for COL2-3/^4Cshort epitope. The COL2-3/4m epitope was recorded in cells and tissue where it was concentrated. The remaining residues of pellets and explants were digested overnight with 1.0 mg/ml proteinase K at 56° C. to extract the remaining intact type II collagen and then boiled for 10 min to denature the enzyme. Total type II collagen content in the pellets and explant was determined from the collective amount of COL2-3/4m in both the α-chymotrypsin and proteinase K digests.

The test system of test [2] is ERK1/2. As to the kind of experiment: Western immunoblot for phosphorylated ERK1/2 in human chondrocytes. On the procedure:
To detect activation of MAP kinases (ERK1/2, p38 MAPK, and JNK1/2), first-passaged chondrocytes plated onto 10-cm culture dishes were incubated with CB12-II (SP), USP, TNF-α, native human type II collagen, human fibronectin, and antibodies to α2β1 and α5β1 for 5-60 min. In some experiments, chondrocytes were precultured with U0126 (inhibitor of phosphorylation of MEK1/2, up-stream kinase molecule of ERK1/2) at 1 μM for 1 h, SB203580 (inhibitor of phosphorylation of p38 MAPK) at 1 μM for 1 h, Herbimycin A (tyrosine kinase inhibitor) at 1 μg/ml for overnight, Wortmannin (PI3 kinase inhibitor) at 100 nM for 1 h, and Cytochalasin D (focal adhesion inhibitor) at 3 μM for 30 or 60 min before adding peptides.
After a variable but designated incubation time, chondrocytes were washed twice with ice cold PBS and lysed in RIPA buffer (10 mM Tris/HCl, pH 7.4, 0.1% SDS, 1% NP-40, 0.1% sodium deoxycholate, 150 mM NaCl, 1 mM EDTA) containing freshly added proteinase and phosphatase inhibitors (1 mM PMSF, 10 μg/ml leupeptin, 1 μg/ml aprotinin, 1 mM Na3VO4, 1 mM NaF). Cell lysate was centrifuged and supernatant was collected. Protein concentration was determined using Bradford's method. Equal amounts of protein were separated on 10% SDS-polyacrylamide gels under reducing conditions and were electrotransferred to a nitrocellulose membrane (Bio-Rad). To block nonspecific binding, the membranes were incubated in PBS containing 5% non-fat milk overnight at 4° C. The membranes were then probed with rabbit antibodies against phosphorylated ERK1/2, p38, and JNK1/2 (New England BioLabs). Antibodies were diluted 1:1000 in PBS containing 0.5% non-fat milk and reacted with the membrane for 1 h at room temperature. Blots were washed with PBS containing 0.1% Tween-20 three times, and incubated for 1 h at room temperature with horseradish peroxidase (HRP)-conjugated goat anti-rabbit IgG (New England BioLabs) diluted 1:2000 with PBS-0.1% Tween 20 for ECL system (Amersham). Then, the membranes were washed with PBS-Tween, and the membranes were detected with the addition of a 1:1 dilution of the ECL detection reagents (Amersham) 1 and 2 for 1 min. The solution was removed, and the membranes were wrapped in plastic wrap and exposed to film for various amounts of time.
First-passaged confluent human chondrocytes were treated with CB12-II (SP) (10 μM), USP (10 μM), anti-α2β1and α5β1 antibodies, anti-integrin α2β1 blocking antibody, and IL-1β or TNF-α. Cell lysates were immunoblotted using antibody that detects phosphorylated p-ERK1I/2 or p-MEK. In some experiments, U0126 at 10 μM, a specific inhibitor of an upstream molecule, MEK1/2, that activates ERK1/2, and SB203580 at 10 μM, that inhibits p38 MAPK activity, were added to the culture 1 h before peptides, antibodies, and cytokines. Herbimycin A, cytochalasin D, and wortmannin were also used as inhibitors.

Test [3] has as its system normal human adult articular cartilage explants. As to the kind of experiment: Type II collagen cleavage by collagenase (COL2-3/4C) in human articular cartilage explant culture. On the procedure: Human femoral chondylar cartilages were obtained at autopsy within 18 hours of death from adult persons with no known history of arthritis and no macroscopic signs of articular degeneration. None of the persons had diabetes or had received chemotherapy prior to autopsy. Adult bovine articular cartilage was obtained from adults/bovine steers and cows from metacarpalphalangeal joints obtained at the abbatoir immediately after slaughter. All cartilage specimens were removed immediately to the laboratory under sterile conditions.
as §1, §2, §3

“Also recorded” adds a separate entry of the source.

ERGPPGPQGARGFPGTPGLPGVK [CB12-II]: the “induction of total collagenase cleavage of type II collagen by CB12 subpeptides” value in test [1] is reported as “most pronounced”. Further, in test [2] (10 μM), the “phosphorylation of ERK1/2 compared with USP at the same concentration” value is given as “more than USP”, the “time of maximum ERK1/2 phosphorylation” value was in the range of 15 to 30 min and the “time to phosphorylation of ERK1/2 after adding peptide” value was at most 5 min. The “phosphorylation of ERK 1/2, dose dependence” value in test [2] (1, 10 and 50 μM, 15 min after addition) is “dose-dependently”. In addition, in test [3] (1 μM (one donor), 5 μM and 10 μM (both donors), over 16 days), the “induction of cleavage of type II collagen, dose dependence” value is “dose dependent manner; also recorded: Activity was seen”. The “COL2-3/4 epitope production in cartilage and medium” value in test [3] (10 μM, day 12) is “significant progressive increase”. Besides, in test [3] (hydroxylation study, day 16), the “type II collagen cleavage by collagenase in presence of peptide” value is recorded as “clearly enhanced”.
